We go through three compounds from ChEMBL document CHEMBL1150400, “Lycoparins A-C, new alkaloids from Lycopodium casuarinoides inhibiting acetylcholinesterase” (Bioorg Med Chem, 2008).

In the assay the target is T1, Acetylcholinesterase (Bos taurus, UniProt P23795).
T1 sequence (P23795 whole entry): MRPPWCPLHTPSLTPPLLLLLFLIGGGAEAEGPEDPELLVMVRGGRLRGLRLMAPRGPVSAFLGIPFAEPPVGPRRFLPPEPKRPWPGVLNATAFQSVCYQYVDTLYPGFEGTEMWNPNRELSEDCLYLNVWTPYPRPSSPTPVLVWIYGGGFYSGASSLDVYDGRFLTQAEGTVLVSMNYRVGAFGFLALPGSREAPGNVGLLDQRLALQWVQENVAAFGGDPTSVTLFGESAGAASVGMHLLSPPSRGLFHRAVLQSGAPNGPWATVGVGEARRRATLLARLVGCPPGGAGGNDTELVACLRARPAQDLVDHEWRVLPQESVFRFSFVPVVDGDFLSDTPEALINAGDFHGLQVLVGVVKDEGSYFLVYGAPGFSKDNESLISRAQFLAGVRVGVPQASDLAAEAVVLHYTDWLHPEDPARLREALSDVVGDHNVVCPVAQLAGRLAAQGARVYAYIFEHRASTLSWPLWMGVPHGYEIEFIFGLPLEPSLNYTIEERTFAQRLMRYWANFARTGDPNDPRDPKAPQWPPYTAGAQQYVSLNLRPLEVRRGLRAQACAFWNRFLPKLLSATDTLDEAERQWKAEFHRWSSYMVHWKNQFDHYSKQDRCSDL
The experiment in a line: Inhibition of acetylcholinesterase from bovine erythrocyte.

As to `C=C[C@@H]1[C@H]2C=C(CO)C[C@]1(N)c1ccc(=O)[nH]c1C2` [LYCOPARIN C], the IC50 was determined as 25 µM.
With `C=C[C@@H]1[C@H]2C=C(C(=O)O)C[C@]1(N(C)C)c1ccc(=O)[nH]c1C2` [LYCOPARIN A], the IC50 was greater than 200 µM.
The figure for `C=C[C@@H]1[C@H]2C=C(C(=O)O)C[C@]1(NC)c1ccc(=O)[nH]c1C2` [LYCOPARIN B] is greater than 200 µM.
